Target: Mitogen-activated protein kinase kinase kinase kinase 1 (Homo sapiens, UniProt Q92918)
Test: Biochemical Assay: The enzymatic activity of human HPK1 (MAP4K1) was monitored in a biochemical assay in the presence or absence of compounds and using a synthetic peptide substrate. An increase in phosphorylation of the peptide by HPK1 was indicative of its kinase activity.Recombinant HPK1 kinase domain produced via baculovirus infection of insect cells was obtained from Proteros (Proteros Biostructures #PR-0322) and was pre-activated in the presence of 2 mM ATP (Sigma-Aldrich, cat #GE27-2056-01) and 2 mM magnesium chloride for 16 hours at 4° C. The protein reaction mixture was then loaded to a desalting column (Thermo Fisher Scientific, Cat #89889) to remove excess ATP. HPK1 was eluted with buffer containing 20 mM Tris (2-Amino-2-(hydroxymethyl)propane-1,3-diol) pH 8.0, 150 mM NaCl, 2 mM dithiothreitol and 5% glycerol, and was frozen at −80° C. for later use. HPK1 dual phosphorylation was confirmed by mass spectrometry.

Chain of Mitogen-activated protein kinase kinase kinase kinase 1 (Q92918 whole entry, the tested form may be a part): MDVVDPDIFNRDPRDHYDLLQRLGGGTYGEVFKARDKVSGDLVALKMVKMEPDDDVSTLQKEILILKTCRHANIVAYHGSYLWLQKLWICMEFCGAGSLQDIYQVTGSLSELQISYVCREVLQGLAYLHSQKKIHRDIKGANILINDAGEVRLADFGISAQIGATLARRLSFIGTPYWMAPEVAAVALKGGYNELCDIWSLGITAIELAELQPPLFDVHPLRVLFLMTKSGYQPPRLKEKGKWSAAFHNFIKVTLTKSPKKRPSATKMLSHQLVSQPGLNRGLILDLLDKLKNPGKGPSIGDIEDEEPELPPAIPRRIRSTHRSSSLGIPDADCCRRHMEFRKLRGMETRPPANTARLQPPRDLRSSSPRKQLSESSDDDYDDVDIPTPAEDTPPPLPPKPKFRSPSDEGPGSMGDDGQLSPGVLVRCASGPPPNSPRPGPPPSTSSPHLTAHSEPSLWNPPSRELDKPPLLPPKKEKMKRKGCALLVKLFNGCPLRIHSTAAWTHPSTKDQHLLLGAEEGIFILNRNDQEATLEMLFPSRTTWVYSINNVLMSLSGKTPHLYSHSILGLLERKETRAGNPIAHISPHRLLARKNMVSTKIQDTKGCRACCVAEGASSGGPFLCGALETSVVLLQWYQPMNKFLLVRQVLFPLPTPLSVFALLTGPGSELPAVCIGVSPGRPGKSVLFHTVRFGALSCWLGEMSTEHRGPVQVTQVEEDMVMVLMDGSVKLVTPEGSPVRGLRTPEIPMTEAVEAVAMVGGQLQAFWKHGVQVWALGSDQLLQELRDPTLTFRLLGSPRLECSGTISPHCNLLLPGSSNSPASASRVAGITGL

Cc1c(-c2cc(F)c3c(c2)/C(=C/c2cc4cnccc4[nH]2)C(=O)N3)cnc2c1NCCO2
IC50: 0.1 nM
